Measurements taken from patent US9782484B2, “Method for producing a composite organic compound powder for medical use” (ACTIVUS PHARMA CO., LTD., priority 2008, dated 2017).

How the values were obtained:
[1] = Size distribution of particles in suspension by particle size distribution analyzer (Delsa Nano S); type: physicochemical; conditions: starting compound suspended with 0.03% sodium lauryl sulfate
Description: Fine-pulverizing experiments will now be described in each of which a carboxyvinyl polymer and a lecithin were added. The average particle diameter before and after fine-pulverizing for a powder was measured using a BET type specific surface area analyzer (Macsorb model HM-1201, from Mountech Co., Ltd.). The particle diameter of particles in a suspension was measured using a particle size distribution analyzer (Delsa Nano S, from Beckman Coulter, Inc.). “D50” is the diameter of a particle having an integrated value of 50% as counted in order of decreasing particle size (or in order of increasing particle size) (called “median particle diameter”) in the size distribution. “D90” is the diameter of a particle having an integrated value of 90% as counted in order of increasing particle size (called “90% median diameter”) in the size distribution. “Dv” is the volume average diameter (called “average particle diameter”).
An experiment of improving a collection efficiency by addition of a lecithin to fine-pulverized particles will now be described. Unless otherwise stated, the average particle diameter of particles was measured using a BET type specific surface area analyzer (Macsorb model HM-1201, from Mountech Co., Ltd.). The particle diameter of particles in a suspension was measured using a particle size distribution analyzer (Delsa Nano S, from Beckman Coulter, Inc.). “D50” is the diameter of a particle having an integrated value of 50% as counted in order of decreasing particle size (or in order of increasing particle size) (called “median particle diameter”) in the size distribution. “D90” is the diameter of a particle having an integrated value of 90% as counted in order of increasing particle size (called “90% median diameter”) in the size distribution. “Dv” is the volume average diameter (called “average particle diameter”).

[2] = Average particle diameter of dried powder converted from BET specific surface area; type: physicochemical; conditions: starting organic compound powder, Table 1 and text
Description: According to the present invention, the “average particle diameter converted from the BET specific surface area” is calculated by converting a value of the specific surface area measured by the BET flow method (one-point type) to the diameter of a hypothetical spherical particle. The following formula 1 is a conversion formula for converting a value of the specific surface area to the diameter. Here, D is an average particle diameter, ρ is a solid density, S is a specific surface area, and α is a shape factor. α is 6 for spherical particles. D=α/(ρ·S) (formula 1)
The BET flow method is preferably a method for measuring the specific surface area by the following procedure. A mixed gas of nitrogen and helium is flowed into a cell in which a sample to be measured is placed, followed by cooling the sample with liquid nitrogen. Then, only nitrogen gas adsorbs to the surface of the sample. Subsequently, when the cell is returned to ordinary temperature, the desorption of the gas occurs. During the desorption of gas, the proportion of nitrogen gas in the mixed gas flowing through one detector becomes larger than the proportion of nitrogen gas flowing through another detector. The difference between signals from these detectors represents the adsorption amount, enabling the measurement of the specific surface area.
Fine-pulverizing experiments are first described in each of which a carboxyvinyl polymer was added. The average particle diameter before and after fine-pulverizing for a dried powder was calculated by converting, by the above-described formula 1, the BET specific surface area measured using a BET type specific surface area analyzer (Macsorb model […], from Mountech Co., Ltd.). The observation of the powder before and after fine-pulverizing was carried out using a scanning electron microscope (model SEM VE-7800, from Keyence Corporation).
Fine-pulverizing experiments will now be described in each of which a carboxyvinyl polymer and a lecithin were added. The average particle diameter before and after fine-pulverizing for a powder was measured using a BET type specific surface area analyzer (Macsorb model HM-1201, from Mountech Co., Ltd.). The particle diameter of particles in a suspension was measured using a particle size distribution analyzer (Delsa Nano S, from Beckman Coulter, Inc.). “D50” is the diameter of a particle having an integrated value of 50% as counted in order of decreasing particle size (or in order of increasing particle size) (called “median particle diameter”) in the size distribution. “D90” is the diameter of a particle having an integrated value of 90% as counted in order of increasing particle size (called “90% median diameter”) in the size distribution. “Dv” is the volume average diameter (called “average particle diameter”). […]

| 90% median diameter (D90) before fine-pulverizing [1] | average particle diameter (Dv) before fine-pulverizing [1] | median particle diameter (D50) before fine-pulverizing [1] | Average Particle Diameter before Fine-pulverizing [2] | SMILES |
| --- | --- | --- | --- | --- |
| – | – | – | 34,000 nm | O=C(O)Cc1ccc(-c2ccccc2)cc1 [felbinac] |
| – | – | – | 3,960 nm | COc1ccc2c(c1)c(CC(=O)O)c(C)n2C(=O)c1ccc(Cl)cc1 [indomethacin] |
| – | – | – | 10,900 nm | Clc1ccc(COC(Cn2ccnc2)c2ccc(Cl)cc2Cl)c(Cl)c1 (stereo not shown) [miconazole] |

Second part, the compound before the results:

| SMILES | 90% median diameter (D90) before fine-pulverizing [1] | average particle diameter (Dv) before fine-pulverizing [1] | median particle diameter (D50) before fine-pulverizing [1] | Average Particle Diameter before Fine-pulverizing [2] |
| --- | --- | --- | --- | --- |
| Nc1nc2c(ncn2COCCO)c(=O)[nH]1 [aciclovir] | 69,371 nm | 60,371 nm | 52,997 nm | – |
| C[C@@H]1[C@H](O)[C@@H](C)/C=C/C=C/C=C/C=C/C=C/C=C/C=C/[C@H](O[C@@H]2O[C@H](C)[C@@H](O)[C@H](N)[C@@H]2O)C[C@@H]2O[C@](O)(C[C@@H](O)C[C@@H](O)[C@H](O)CC[C@@H](O)C[C@@H](O)CC(=O)O[C@H]1C)C[C@H](O)[C@H]2C(=O)O [amphotericin B] | 15,181 nm | 13,423 nm | 11,843 nm | – |
| CCC(=O)O[C@]1(C(=O)SCF)[C@H](C)C[C@H]2[C@@H]3C[C@H](F)C4=CC(=O)C=C[C@]4(C)[C@@]3(F)[C@@H](O)C[C@@]21C [fluticasone propionate] | – | – | – | 7,850 nm |
